Measured values reported in patent US20220288102A1, “Compounds for Hepatitis B Treatment” (Agency for Science, Technology and Research, priority 2019, published 2022).
“Also recorded” adds a separate entry of the source.

Tests used:
HBsAg [1] = experiment: HBsAg inhibition in HepG2 2.15 cells (primary screen and dose response, HBsAg ELISA); assay type: cell-based, Hepatitis B virus; settings: for percentage inhibition curve (HBsAg) / HBsAg inhibition, dose response curve: 8-point dose response in HepG2 2.15 cells starting from 30 μM; for percentage inhibition curve (HBsAg): FIG. 4; for IC50: Hepatitis B virus, HepG2.2.15, read-out: IC50 (HBsAg)
Method: HBsAg ELISA. HBsAg ELISA was carried out as described in detail below. In brief 25 μL of the cell culture supernatant was collected at the indicated timepoints on the figure legends and was used for the HBsAg ELISA.
Procedure • 1. Coat microwells with 25 ul per well of mouse monoclonal [86C] diluted in coating buffer (6 ug per ml; 300 ul from 0.2 mg/ml stock in 10 ml of coating buffer)(150 ng/well). • 2. Seal plate and incubate overnight at 4° C. • 3. Aspirate wells and wash 3 times with 50 ul/well of wash buffer. • 4. After last wash, invert plate and blot on c-towel and spin 1000 rpm for 1 min to remove residual solution. • 5. Block plates with 75 ul/well of assay diluent. Incubate at RT for 2 hrs. • 6. Aspirate/wash as in step 3. • 7. Prepare 4000 ng/ml of active HBS Ag (Adw) full length protein in assay diluent and titrate 2 fold for 12 different decreasing concentration. Pipette 25 ul of sample and different dilutions of active HepB surface Ag (Adw) into appropriate wells. Seal plate and incubate for 2 hrs at RT. • 8. Aspirate/wash as in step 3 but with total 5 washes. • 9. Add 25 ul of working detector (Rabbit polyclonal to HBS-Biotin (4500 ng/ml)+SAv-HRP (1:1000) reagent to each well. Seal plate and incubate for 1 hr at RT. • 10. Aspirate/wash as in step 3 but for 7 washes. • 11. Add 25 ul of TMB substrate solution to each well and incubate plate for 30 minutes at RT in dark. • 12. Add 25 ul of stop solution (1N HCl) to each well, read absorbance at 450 nm within 30 minutes of stopping reaction.
In block 205, a primary screen of the library of compounds was done in HepG2 2.15 cells to determine the inhibitory activity of HBsAg (the surface antigen of the Hepatitis B virus which indicates hepatitis B infection in patients) and parallel cytotoxicity. In block 310, the hit compounds (“HITS” or “HITs”) were determined by identifying compounds with certain criteria. […] For example, the compounds may be tested at 3 μM (data shown herein) or 10 μM.
A secondary screen of the hit compounds was done to determine the EC50 of the hit compounds.

HBV in HepAD38.7 cells = experiment: Secondary validation of the drug screen in HepAD38.7 cells; assay type: cell-based, Hepatitis B virus
Method: In block 215, a secondary screen was conducted to determine the EC50 values (the effective concentration to obtain 50% activity or inhibition) of the HIT compounds. In block 220, the hit compounds were tested in HEPAD38.7 HBV live infection models to determine the robustness of the hit compounds, i.e. whether the hit compounds are effective. In block 225, the novel lead compounds or scaffold structures are identified and mechanism of action (MOA) studies for target engagement were developed. In block 230, the lead compound is optimised and validated or if the compound is known but for a different non-biological use or biological target, the compound may be repurposed for the inhibition of HBV. In block 235, the efficacy of the compound was determined in animal models.
A secondary validation of the drug screen in HepAD38.7 cells and a functional gene knockdown using Lipofectamine 3000 reagent was also performed. The genes selected were the annotated targets of the selected epigenetic inhibitors.

[2] = Cytotoxicity in HepG2 2.15 cells; assay type: cell-based; settings: human, Hep G2 2.15 cells
Method: In block 205, a primary screen of the library of compounds was done in HepG2 2.15 cells to determine the inhibitory activity of HBsAg (the surface antigen of the Hepatitis B virus which indicates hepatitis B infection in patients) and parallel cytotoxicity. In block 310, the hit compounds (“HITS” or “HITs”) were determined by identifying compounds with certain criteria. […] In the preliminary screen, the compounds are typically tested at higher concentrations than expected and may lead to greater than desired cytotoxicity (>20%). For example, the compounds may be tested at 3 μM (data shown herein) or 10 μM. However, the compound was subsequently further tested in a proper dose response manner (described below) to determine whether the drug is able to elicit the antiviral response (decrease in HBsAg levels) with low cytotoxicity (i.e. <20% cytotoxicity).
From the primary high throughput screen of 151 epigenetic modulators in the SelleckChem compound library at a 3 μM concentration, 16 hit compounds were identified to have good antiviral activity resulting in high HBsAg loss (>50%) and low cytotoxicity (<20%) and the results are shown in FIG. 3.
A secondary screen of the hit compounds was done to determine the EC50 of the hit compounds. […] Some of the other compounds were determined to be less suitable. […] The MI-2 EC50 is very high and appers to be dependent on the toxic nature of the compound and was not a viable option. The percentage inhibition curve of MC1568, OF-1 and tofacitinib in FIG. 4 are close to 0 in the vertical axis and may not be readily seen in FIG. 4. It may be seen that the secondary screen is able to filter off unsuitable compounds from the primary screen.

HBsAg [3] = experiment: HBsAg ELISA in HBV-infected primary human hepatocytes; assay type: cell-based, Hepatitis B virus; settings: 3 μM
Method: HBV infection of PHH. Primary human hepatocytes were infected at […] in presence of 4% PEG8000 and 1% DMSO as described earlier. The samples, cell lysate for RNA and or DNA as well as cell culture supernatant were harvested at indicated timepoints on figure legends.
Procedure • 1. […] Seal plate and incubate overnight at 4° C. • 3. […] Block plates with 75 ul/well of assay diluent. Incubate at RT for 2 hrs. • 6. Aspirate/wash as in step 3. • 7.
(§1) FIG. 8 briefly describes an experimental model of the method to infect the cells with HBV, treatment with drugs, and subsequent analysis. The primary human hepatocytes were seeded in a 96 well plate coated with Collagen I (30 minutes at room temperature) with DMSO (1%) induction. The next day, the cells were infected with purified HBV with a multiplicity of infection (MOI) of 500 (i.e. the ratio of the infection agent (HBV) to the infection target (cell)) in media containing 4% polyethylene glycol 8000 (PEG-8000) and 1% DMSO (day 0). On the next day, the infected cells were washed vigorously to remove excess virus by washing 3 times without removing the spent media completely and treated with the test compounds at 3 μM concentration (day 1). In addition. the supernatant was collected at day 3 and the cells pulsed again with the test compounds at 3 μM concentration. At day 5, the supernatant was collected for analysis with the HBsAg ELISA and finally at day 8 cells were lysed for DNA isolation, eHBV analysis and cccDNA analysis. This allows comparison of the effects of the compounds on day 3 and day 5. Some of the cells were fixed, permeabalized and stained with antibody to HBcAg to determine HBcAg levels via IFA.

[4] = tested on: primary human hepatocytes; experiment: Cytotoxicity (CCK-8) in infected primary human hepatocytes; assay type: cell-based; settings: 3 μM
cccDNA = cccDNA (qPCR) in infected primary human hepatocytes; assay type: cell-based, Hepatitis B virus; settings: HBVcc-infected primary human hepatocytes, compound treatment 3 μM
Method: The DNA is isolated from the cellular lysate, purification with Plasmid safe ATP-dependent DNAse is performed to remove non-circular DNAs (relaxed circular DNA). cccDNA levels are then measure using a Taqman-probe based quantitative polymerase chain reaction.
as §1, with “Some of the cells were fixed, permeabalized and stained with antibody to HBcAg to determine HBcAg levels via IFA.” left out

extracellular HBV DNA = experiment: Extracellular HBV DNA (qPCR) in infected primary human hepatocytes; assay type: cell-based, Hepatitis B virus; settings: HBVcc-infected primary human hepatocytes, compound treatment 3 μM
Method: HBV extracellular DNA was extracted from 200 μL of cell culture supernatant collected at the end of the experiment as indicated on the figure legends. DNA was extracted according to the QIAamp DNA Mini Kit (Qiagen).
as §1

Row | SMILES | antiviral effect in HepAD38 cells (HBV in HepAD38.7 cells) | HBsAg inhibition, dose response curve (HBsAg [1]) | IC50 [2] | IC50 (HBsAg [1]) | other results
1 | CCCc1cc2c(N3CCN(C4=NCC(C)(C)S4)CC3)ncnc2s1 [MI-2] |  |  |  |  | EC50 (HBsAg [1]; secondary screen, HepG2 2.15 cells): very high
2 | C[C@@H]1CCN(C(=O)CC#N)C[C@@H]1N(C)c1ncnc2[nH]ccc12 [Tofacitinib] |  |  |  |  | percentage inhibition curve (HBsAg) (HBsAg [1]): ~0%
3 | COc1cc(Nc2ncc3c(n2)-c2ccc(Cl)cc2C(c2c(F)cccc2OC)=NC3)ccc1C(=O)O [Alisertib] | did not show an effect | not as efficacious |  |  | 
4 | CCCCN(Cc1ccc(C(=O)NO)cc1)C(=O)Nc1ccccc1 [Nexturastat A] | significantly higher antiviral activity | suitable dose response curve | 3.58 µM | 0.98 µM | HBsAg levels (HBsAg [3]; Day 3 and Day 5): reduces HBsAg levels more than Entecavir
5 | Cn1c(/C=C/C(=O)NO)ccc1/C=C/C(=O)c1cccc(F)c1 [MC-1568] |  |  |  |  | percentage inhibition curve (HBsAg) (HBsAg [1]): ~0%
6 | Cc1nc(N)sc1-c1ccnc(Nc2ccc(N3CCOCC3)cc2)n1 [CYC-116] | significantly higher antiviral activity | suitable dose response curve | 1.49 µM | 0.42 µM | cytotoxicity level (CCK-8) [4]: higher cytotoxicity levels; cccDNA levels in the cell lysate (cccDNA): lowest measured cccDNA levels; extracellular HBV DNA levels in the cell culture supernatant (extracellular HBV DNA): reduces extracellular HBV DNA levels more than Entecavir; HBsAg levels (HBsAg [3]; Day 3 and Day 5): reduces HBsAg levels more than Entecavir; also recorded: lowest HBsAg levels
7 | CCS(=O)(=O)c1cccc(-c2cc(C(=O)NC3CCN(C)CC3)c(C)c3[nH]c4ncc(C)cc4c23)c1 [TAK-901] | significantly higher antiviral activity | suitable dose response curve | 11 µM | 0.4 µM | cytotoxicity level (CCK-8) [4]: higher cytotoxicity levels; cccDNA levels in the cell lysate (cccDNA): lowest measured cccDNA levels; extracellular HBV DNA levels in the cell culture supernatant (extracellular HBV DNA): reduces extracellular HBV DNA levels more than Entecavir; HBsAg levels (HBsAg [3]; Day 3 and Day 5): reduces HBsAg levels more than Entecavir
8 | CC(C)c1cc2c(N3CCN(C4=NCC(C)(C)S4)CC3)ncnc2s1 [MI-3] |  | suitable dose response curve | 4.37 µM | 1.12 µM | 
9 | CN1CCc2c(c3ccccc3n2Cc2ccc(C(=O)NO)cc2)C1.Cl [Tubastatin A HCl, Tubastatin A hydrochloride salt] | significantly higher antiviral activity | suitable dose response curve | 7.21 µM | 2 µM | HBsAg levels (HBsAg [3]; Day 3 and Day 5, hydrochloride salt): reduces HBsAg levels more than Entecavir; also recorded: lowest HBsAg levels
10 | Cc1cc(Nc2nc(N[C@@H](C)c3ccc(F)cc3)c(C#N)cc2F)n[nH]1 [AZ960] |  | suitable dose response curve | 0.231 µM | 0.193 µM | extracellular HBV DNA levels in the cell culture supernatant (extracellular HBV DNA): reduces extracellular HBV DNA levels more than Entecavir
11 | C=C1[C@H](CO)[C@@H](O)C[C@@H]1n1cnc2c(=O)[nH]c(N)nc21 [Entecavir] |  |  |  |  | cytotoxicity level (CCK-8) [4]: low toxicity levels
12 | COc1cc2c(cc1NS(=O)(=O)c1ccc(Br)cc1C)n(C)c(=O)n2C [OF-1] |  |  |  |  | percentage inhibition curve (HBsAg) (HBsAg [1]): ~0%
